“And” between values parts separate entries of the source, which are not always exact repeats. Equal entries are not always repeated. Structures can show the parent of a compound that is named as a salt.
Experiments:
ULK3 = target: T1, ULK3 (Homo sapiens, UniProt Q6PHR2); test: DSF (ULK3) thermal shift; format: binding
T1 sequence (Q6PHR2 1-472): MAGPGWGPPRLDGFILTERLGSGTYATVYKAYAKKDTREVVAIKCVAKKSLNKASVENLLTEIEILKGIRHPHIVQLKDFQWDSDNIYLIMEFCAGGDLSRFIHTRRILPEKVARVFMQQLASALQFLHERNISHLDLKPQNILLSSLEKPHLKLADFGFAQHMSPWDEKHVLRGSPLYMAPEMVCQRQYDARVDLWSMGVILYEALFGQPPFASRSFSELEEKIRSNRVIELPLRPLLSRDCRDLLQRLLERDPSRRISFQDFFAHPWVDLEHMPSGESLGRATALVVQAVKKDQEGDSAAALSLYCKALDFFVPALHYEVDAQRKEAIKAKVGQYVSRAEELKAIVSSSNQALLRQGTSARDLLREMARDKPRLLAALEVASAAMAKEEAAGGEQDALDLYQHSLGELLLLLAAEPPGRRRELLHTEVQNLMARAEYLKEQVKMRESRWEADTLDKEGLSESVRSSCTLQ

JAK2 = JAK2 (Homo sapiens, UniProt O60674); test: DSF (JAK2) thermal shift; format: binding
Chain of JAK2 (O60674 whole entry): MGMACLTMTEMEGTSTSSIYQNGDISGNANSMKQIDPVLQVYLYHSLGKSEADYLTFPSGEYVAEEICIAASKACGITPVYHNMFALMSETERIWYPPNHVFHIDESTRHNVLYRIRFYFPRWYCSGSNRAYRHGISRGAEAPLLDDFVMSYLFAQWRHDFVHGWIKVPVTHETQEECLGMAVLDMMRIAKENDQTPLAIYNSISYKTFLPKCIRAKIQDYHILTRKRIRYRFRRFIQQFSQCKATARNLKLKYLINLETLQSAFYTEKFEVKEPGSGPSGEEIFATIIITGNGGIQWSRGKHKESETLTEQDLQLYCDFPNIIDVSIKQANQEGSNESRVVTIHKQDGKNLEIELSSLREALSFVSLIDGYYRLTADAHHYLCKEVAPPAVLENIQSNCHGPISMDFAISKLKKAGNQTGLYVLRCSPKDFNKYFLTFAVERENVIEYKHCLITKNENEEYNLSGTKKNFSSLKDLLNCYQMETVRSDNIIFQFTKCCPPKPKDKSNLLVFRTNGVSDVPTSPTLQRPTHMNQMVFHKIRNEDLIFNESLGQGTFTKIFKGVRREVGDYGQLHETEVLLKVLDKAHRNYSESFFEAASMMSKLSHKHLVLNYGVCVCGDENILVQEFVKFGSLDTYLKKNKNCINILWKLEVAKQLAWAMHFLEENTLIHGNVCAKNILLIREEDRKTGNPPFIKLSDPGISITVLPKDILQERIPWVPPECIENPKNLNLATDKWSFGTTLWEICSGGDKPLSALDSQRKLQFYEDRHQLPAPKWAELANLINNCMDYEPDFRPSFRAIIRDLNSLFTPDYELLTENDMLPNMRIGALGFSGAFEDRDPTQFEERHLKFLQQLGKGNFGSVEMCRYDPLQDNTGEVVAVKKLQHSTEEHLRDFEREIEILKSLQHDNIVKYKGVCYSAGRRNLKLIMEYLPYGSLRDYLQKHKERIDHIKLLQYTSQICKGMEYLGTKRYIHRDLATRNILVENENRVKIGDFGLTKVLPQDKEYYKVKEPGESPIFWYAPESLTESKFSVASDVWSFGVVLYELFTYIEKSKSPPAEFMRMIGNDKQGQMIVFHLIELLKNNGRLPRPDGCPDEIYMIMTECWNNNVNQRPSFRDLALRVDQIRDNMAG

Row | SMILES | DSF (ULK3) ΔTm (° C.) (ULK3) | DSF (JAK2) ΔTm (° C.) (JAK2) [°C]
1 | COC[C@@H](NC(=O)c1ccc(-c2ccnc(Nc3ccc(N4CCOCC4)cc3)n2)cc1)c1ccccc1 [BR1-036, (S)—N-(2-Methoxy-1-phenylethyl)-4-(2-((4-morpholinophenyl)amino)pyrimidin-4-yl)benzamide] | 9.8 °C | –
2 | N#CCNC(=O)c1ccc(-c2ncnc3[nH]ccc23)cc1 [BL4-136] | 5.1 °C | 1
3 | CN1CCC(c2ccc(Nc3ncc(F)c(-c4ccc(C(=O)NCC#N)cc4)n3)cc2F)CC1 [GM1-064, N-(Cyanomethyl)-4-(5-fluoro-2-((3-fluoro-4-(1-methylpiperidin-4-yl)phenyl)amino)pyrimidin-yl)benzamide] | 8.0 °C | 3.68
4 | O=C(N[C@H](CO)Cc1ccccc1)c1ccc(-c2ccnc(Nc3ccc(N4CCOCC4)cc3)n2)cc1 [BR1-034, (S)—N-(1-Hydroxy-3-phenylpropan-2-yl)-4-(2-((4-morpholinophenyl)amino)pyrimidin-4-yl)benzamide] | 9.1 °C | –
5 | CN1CCN(c2cccc(Nc3nccc(-c4ccc(C(=O)N5CCC[C@H]5C(F)(F)F)cc4)n3)c2)CC1 [BH2-013, (S)-(4-(2-((3-(4-Methylpiperazin-1-yl)phenyl)amino)pyrimidin-4-yl)phenyl) (2-(trifluoromethyl)pyrrolidin-1-yl) methanone] | 10.9 °C | –
6 | COC[C@H](Cc1ccccc1)NC(=O)c1ccc(-c2ccnc(Nc3ccc(N4CCOCC4)cc3)n2)cc1 [BR1-012] | 5.8 °C | 0.1
7 | N#CCNC(=O)c1ccc(-c2ccnc(Nc3ccc(N4CCOCC4=O)cc3)n2)cc1 [BH1-090, N-(Cyanomethyl)-4-(2-((4-(3-oxomorpholino)phenyl)amino)pyrimidin-4-yl)benzamide] | 7.5 °C | 1.3
8 | CN1CCN(c2cccc(Nc3nccc(-c4ccc(C(=O)N5CCC[C@@H]5C(F)(F)F)cc4)n3)c2)CC1 [BH2-011, (R)-(4-(2-((3-(4-Methylpiperazin-1-yl)phenyl)amino)pyrimidin-4-yl)phenyl) (2-(trifluoromethyl)pyrrolidin-1-yl) methanone] | 14.5 °C and 14.4 °C | –
9 | CC(C)[C@H](CO)NC(=O)c1ccc(-c2ccnc(Nc3ccc(N4CCOCC4)cc3)n2)cc1 [BH1-063, (R)—N-(1-Hydroxy-3-methylbutan-2-yl)-4-(2-((4-morpholinophenyl)amino)pyrimidin-4-yl)benzamide] | 7.9 °C | 3.6
10 | Cc1cnc(Nc2ccc(CN3CCN(C)CC3)cc2)nc1-c1ccc(C(=O)NCC#N)cc1 [BH1-102] | 7.2 °C | 4.68
11 | N#CCNC(=O)c1ccc(-c2ccnc(Nc3ccc(N4CCOCC4)cc3)n2)cc1 [BL4-106 HCl salt, reference compound] | 14.3 °C and 9.9 °C | –
12 | CN1CCN(c2ccc(Nc3ncc(F)c(-c4ccc(C(=O)NCC#N)cc4)n3)cc2F)CC1 [BH1-095] | 8.8 °C | –
13 | N#CC(NC(=O)c1ccc(-c2ccnc(Nc3ccc(N4CCOCC4)cc3)n2)cc1)c1ccccc1 (centres unmarked) [BL4-153, N-(Cyano (phenyl)methyl)-4-(2-((4-morpholinophenyl)amino)pyrimidin-4-yl)benzamide] | 11.6 °C | –
14 | O=C(NCC(F)(F)F)c1ccc(-c2ccnc(Nc3ccc(N4CCOCC4)c(F)c3)n2)cc1 [BH1-138, 4-(2-((3-Fluoro-4-morpholinophenyl)amino)pyrimidin-4-yl)-N-(2,2,2-trifluoroethyl)benzamide] | – | 0.5
15 | CN1CCN(c2cccc(Nc3nccc(-c4ccc(C(=O)NCC(F)(F)F)cc4)n3)c2)CC1 [BH2-010, 4-(2-((3-(4-Methylpiperazin-1-yl)phenyl)amino)pyrimidin-4-yl)-N-(2,2,2-trifluoroethyl)benzamide] | 14.4 °C | –

Second part, the molecule after the results:

Row | DSF (ULK3) ΔTm (° C.) (ULK3) | DSF (JAK2) ΔTm (° C.) (JAK2) [°C] | SMILES
16 | 14.7 °C | – | O=C(NCC(F)(F)F)c1ccc(-c2ccnc(Nc3cccc(N4CCOCC4)c3)n2)cc1 [BR1-045, 4-(2-((3-Morpholinophenyl)amino)pyrimidin-4-yl)-N-(2,2,2-trifluoroethyl)benzamide]
17 | 14.1 °C | – | CN1CCN(c2cc(F)cc(Nc3nccc(-c4ccc(C(=O)N5CCC[C@@H]5C(F)(F)F)cc4)n3)c2)CC1 [BR1-052]
18 | 13.4 °C | – | O=C(c1ccc(-c2ccnc(Nc3cccc(N4CCOCC4)c3)n2)cc1)N1CCC[C@@H]1C(F)(F)F [BR1-047]
19 | 1.3 °C | – | O=C(NCC(F)(F)F)c1ccc(-c2ccnc(Nc3ccc(N4CCOCC4)cc3N3CCOCC3)n2)cc1 [BR1-054]
20 | 11.8 °C | – | N#CCNC(=O)c1ccc(-c2nc(Nc3ccc(N4CCOCC4=O)cc3)ncc2Cl)cc1 [GM1-072, 4-(5-Chloro-2-((4-(3-oxomorpholino)phenyl)amino)pyrimidin-4-yl)-N-(cyanomethyl)benzamide]
21 | 10.5 °C | – | CN1CCN(c2cc(F)cc(Nc3nccc(-c4ccc(C(=O)N5CCC[C@H]5C(F)(F)F)cc4)n3)c2)CC1 [BR1-053]
22 | 11.9 °C and 12.6 °C | – | CS(=O)(=O)O.Cc1cnc(Nc2ccc(C3CCN(C)CC3)c(F)c2)nc1Nc1ccc(Cl)c(NS(=O)(=O)C(C)(C)C)c1 [MA9-060, reference compound]
23 | 8.4 °C | – | COC[C@H](NC(=O)c1ccc(-c2ccnc(Nc3ccc(N4CCOCC4)cc3)n2)cc1)c1ccccc1 [BR1-038, (R)—N-(2-Methoxy-1-phenylethyl)-4-(2-((4-morpholinophenyl)amino)pyrimidin-4-yl)benzamide]
24 | 6.8 °C | – | CN1CCC(c2cnc(Nc3nc(-c4ccc(C(=O)NCC#N)cc4)c4cc[nH]c4n3)cc2F)CC1 [RF1-058, N-(Cyanomethyl)-4-(2-((4-fluoro-5-(1-methylpiperidin-4-yl)pyridin-2-yl)amino)-7H-pyrrolo-[2,3-d]pyrimidin-4-yl)benzamide]
25 | 11.0 °C and 13.1 °C | 6.48 | N#CCNC(=O)c1ccc(-c2nc(Nc3ccc(N4CCOCC4)cc3)ncc2Cl)cc1 [GM1-048, 4-(5-Chloro-2-((4-morpholinophenyl)amino)pyrimidin-4-yl)-N-(cyanomethyl)benzamide]
26 | 8.4 °C | – | Cc1cnc(Nc2ccc(N3CCOCC3)cc2)nc1-c1ccc(C(=O)NCC#N)cc1 [GM1-032, N-(Cyanomethyl)-4-(5-methyl-2-((4-(morpholino)phenyl)amino)pyrimidin-4-yl)benzamide]
27 | 14.3 °C and 10.6 °C and 13.2 °C | – | N#CCNC(=O)c1ccc(-c2ccnc(Nc3ccc(N4CCOCC4)cc3)n2)cc1 [Momelotinib (BL4-106), Momelotinib, reference compound]
28 | 10.6 °C | – | N#CCNC(=O)c1ccc(-c2nc(Nc3ccc(N4CCOCC4)cc3)ncc2F)cc1 [GM1-034, N-(Cyanomethyl)-4-(5-fluoro-2-((4-morpholinophenyl)amino)pyrimidin-4-yl)benzamide]
29 | 9.3 °C | – | O=C(c1ccc(-c2ccnc(Nc3cccc(N4CCOCC4)c3)n2)cc1)N1CCC[C@H]1C(F)(F)F [BR1-048]
30 | 10.6 °C | – | Cc1cnc(Nc2ccc(C(=O)NC3CCN(C)CC3)c(F)c2)nc1Nc1ccc(Cl)c(NS(=O)(=O)C(C)(C)C)c1 [SG3-179, reference compound]
31 | 11.1 °C | – | CN1CCN(c2cc(F)cc(Nc3nccc(-c4ccc(C(=O)NCC(F)(F)F)cc4)n3)c2)CC1 [BR1-051]
